{
  "source": "patent US9181309B1",
  "about": "“Peptide regulation of maize defense responses” (The United States of America, as represented by the …, priority 2011, dated 2015)",
  "key": {"S. exigua": {"test_system": "S. exigua", "test": "Larval growth on peptide-pretreated leaves", "type": "in vivo, Spodoptera exigua", "details": "compared to untreated or water-treated leaves", "description": "To assess the role of ZmPep3-induced direct defenses, S. exigua growth on peptide-pretreated leaves was evaluated. […] This effect was expected given the potency of ZmPep3-induced proteins and benzoxazinoids against herbivores."}, "[1]": {"test_system": "defense metabolites in maize leaves", "test": "Accumulation of defense metabolites within treated leaves (internal pools)", "type": "in vivo, Zea mays", "from_the_text": "Induced terpene production is vital to anti-herbivore defenses in many plant species (Unsicker et al., Curr Opin Plant Biol. 12:479, 2009; Tholl, Curr Opin Plant Biol. 9:297, 2006; Keeling and Bohlmann, New Phytol 170:657, 2006). […] Expression of genes encoding the relevant biosynthetic enzymes, Anthranilic Acid Methyl Transferase 1 (AAMT1) and Indole-Glycerol Phosphate Lyase (IGL) were induced by both peptide and the insect elicitor ([…]., Plant Physiol 153:1795, 2010; Frey et al., Proc Natl Acad Sci USA. 97:14801, 2000). In addition to proteinaceous defenses, maize benzoxazinoids contribute to direct defenses against both herbivores and pathogens ([…] Agric Food Chem 57:1677, 2009). […] Oikawa et al., Phytochemistry. 56:669, 2001; Huffaker et al., Plant Physiol. 155:1325, 2011). […] It is hypothesized that simultaneous activation of both IGL and BX1 by ZmPep3 results in increased flux through the benzoxazinoid pathway to produce HDMBOA-Glc."}, "maize leaf transcripts": {"test_system": "maize leaf transcripts", "test": "Microarray analysis of transcript levels in ZmPep3 vs water-treated leaves", "type": "in vivo, Zea mays", "details": "leaves treated for 12 h", "from_the_text": "The gene transcripts shown in FIG. 4 are a subset of the defense-related genes found to be induced by ZmPEP3 peptide in the excised leaf assays. Including these, a total of twenty genes have been identified as ZmPEP3-responsive. All can be classified as pertaining to four broad categories of defense-related genes; those encoding proteins that are directly antimicrobial, those encoding proteins that synthesize secondary metabolites associated with defense, those encoding proteins that are involved in reactive oxygen species-based signal transduction and detoxification, and those that encode biosynthetic proteins for the two main plant small molecule hormone regulators of defense, ethylene and oxylipins. To obtain a more global perspective of gene expression regulated by ZmPEP3, a microarray experiment was performed to compare expression levels in ZmPEP3 vs. water-treated leaves after […]. […] In FIG. 7, real-time quantification of expression levels of genes associated with direct and indirect herbivore defenses confirms that ZmPEP3 is a strong regulator of both defense responses. […] FIG. 8 lists defense-associated genes discovered to be induced by the ZmPEP3.\nA microarray analysis of transcript levels in leaves that were treated for 12 h with either water or ZmPep3 was employed to better characterize the breadth of ZmPep3-regulated responses. […]"}, "[2]": {"test_system": "herbivore defense genes in maize leaves", "test": "Real time qPCR / qRT-PCR of defense and phytohormone biosynthesis genes in treated leaves"}, "[3]": {"test_system": "jasmonic acid and ethylene production in maize leaves", "test": "Phytohormone (JA, ET) production in treated leaves", "type": "in vivo, Zea mays", "from_the_text": "A further embodiment is ZmPEP3 regulated production of defense-related metabolites. The elicitor-induced phytohormones JA and ethylene (ET) function as signals integral to initiation of protective responses against pathogens and herbivores (Howe and Jander, Annu Rev Plant Biol. 59:41, 2008)."}, "[4]": {"details": "equivalent molar concentrations"}, "[5]": {"details": "low equivalent quantities of elicitor"}, "[6]": {"details": "real-time quantification, peptide-treated leaves"}},
  "data": [
    {"substance": "ZmPEP3: 23 amino acid maize plant elicitor peptide TRTPPWPPCPPEEGSGGNGGSHN (SEQ ID NO: 3) (Zea mays)", "values": [
      {"measurement": "less biomass gain of second instar larvae", "setting": "S. exigua", "result": 40, "unit": "%"},
      {"measurement": "anthranilate and indole in leaves", "setting": "[1]; following treatment", "result": "increased"},
      {"measurement": "HDMBOA-Glc accumulation", "setting": "[1]; in vivo", "result": "increased accumulation"},
      {"measurement": "anthranilate and indole accumulation, peptide vs Gln-18:3", "setting": "[1]; in vivo", "result": "significantly greater accumulation"},
      {"measurement": "accumulation of terpenes in internal pools, ZmPep3 vs Gln-18:3", "setting": "[1]; measured prior to volatile collection", "result": "significantly greater accumulation of terpenes"},
      {"measurement": "BX1 and BX2 microarray probe sets", "setting": "maize leaf transcripts", "result": "upregulated"},
      {"measurement": "SerPIN probe set in microarray", "setting": "maize leaf transcripts", "result": "most highly upregulated probe set"},
      {"measurement": "BX1 and BX2 expression by qRT-PCR", "setting": "[2]; 12 h post-treatment", "result": "expressed"},
      {"measurement": "TPS10 and TPS23 gene expression, ZmPep3 versus Gln-18:3", "setting": "[2]; [4]", "result": "more strongly induced"},
      {"measurement": "expression of genes encoding Terpene Synthases (TPS) 10 and 23", "setting": "[2]; [4]", "result": "strongly activate expression"},
      {"measurement": "SerPIN and WIP1 expression by qRT-PCR", "setting": "[2]; in vivo", "result": "highly expressed"},
      {"measurement": "expression of AAMT1 and IGL genes", "setting": "[2]; in vivo", "result": "induced"},
      {"measurement": "ACC Oxidase and AOC transcript, ZmPep3-treated compared to Gln-18:3-treated leaves", "setting": "[2]; [5]", "result": "greater quantities of transcript"},
      {"measurement": "accumulation of transcripts for ACC Oxidase, Allene Oxide Synthase and Allene Oxide Cyclase", "setting": "[2]; [5]", "result": "significantly increased accumulation of transcripts"},
      {"measurement": "upregulation of genes encoding proteinase inhibitor proteins", "setting": "[2]; [6]", "result": "more than a thousand-fold"},
      {"measurement": "upregulation of genes encoding terpene synthases", "setting": "[2]; [6]", "result": "more than a thousand-fold"},
      {"measurement": "jasmonic acid accumulation in leaves", "setting": "[3]; ZmPEP3-treated leaves", "result": "found to accumulate"},
      {"measurement": "JA and ET increases, ZmPep3 compared to Gln-18:3", "setting": "[3]; low equivalent quantities", "result": "greater magnitude and longer duration"},
      {"measurement": "JA and ET synthesis", "setting": "[3]; low equivalent quantities of either elicitor", "result": "elicitation of JA and ET synthesis"}
    ]}
  ]
}
